The text below walks through data of patent US10898481B2 (priority 2018, dated 2021).

The structures appear in SMILES notation.

The assay deals with hA2a/CHO (Homo sapiens (Human), UniProt P29274). Description: cAMP inhibition assay in hA2a/CHO cells, 10 μM adenosine.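 Also: compounds added to cells 30 min ahead of adenosine, then a further 30 min at 37 °C with adenosine before cAMP detection.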 The format is cell-based. To be noted: read-out: cAMP & FLIPR IC50 (nM) hA2a.
Chain of hA2a/CHO (P29274 whole entry): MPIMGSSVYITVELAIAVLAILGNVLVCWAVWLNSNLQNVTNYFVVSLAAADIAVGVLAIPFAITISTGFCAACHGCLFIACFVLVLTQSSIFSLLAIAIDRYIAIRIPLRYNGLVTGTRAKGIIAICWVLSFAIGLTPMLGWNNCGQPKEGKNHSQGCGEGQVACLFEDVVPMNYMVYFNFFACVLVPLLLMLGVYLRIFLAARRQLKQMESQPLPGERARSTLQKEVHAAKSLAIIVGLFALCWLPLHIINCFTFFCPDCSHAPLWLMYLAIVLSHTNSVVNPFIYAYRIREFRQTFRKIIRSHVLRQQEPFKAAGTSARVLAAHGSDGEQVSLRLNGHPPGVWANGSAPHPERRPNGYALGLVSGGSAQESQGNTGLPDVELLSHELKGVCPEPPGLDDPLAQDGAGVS
Experimental: hA2a/CHO, hA2b/CHO, hA3/CHO and mA2a/CHO (Genscript) were plated at 5×10^3 cells/well into 384-well polystyrene plates at the day of experiment. Compounds were pre-incubated with cells for 30 min at 37° C., 5% CO2. Then 10 μM adenosine was added to the cells and incubated for 30 min at 37° C., 5% CO2. Detection reagent (CISBIO) was added and the plates were incubated for 60 min at room temperature. The signal was captured by Envision.
For `Cc1cnc2ccc(-c3nc(C(=O)NC(C)Cn4cncn4)c(N)nc3-c3ncco3)cn12` (racemic) [Example 306, rac-N-(1-(1H-1,2,4-triazol-1-yl)propan-2-yl)-3-amino-6-(3-methylimidazo [1,2-a]pyridin-6-yl)-5-(oxazol-2-yl) pyrazine-2-carboxamide], the IC50 was 14 nM. As for `COC1CCOC1CNC(=O)c1nc(-c2ccc3ncc(C)n3c2)c(-c2ncco2)nc1N` (single isomer, unassigned) [Example 279, 3-amino-N-((3-methoxytetrahydrofuran-2-yl)methyl)-6-(3-methylimidazo[1,2-a]pyridin-6-yl)-5-(oxazol-2-yl)pyrazine-2-carboxamide], the IC50 amounted to 1.4 nM. As to `COC1CCOC1CNC(=O)c1nc(-c2ccc3ncc(C)n3c2)c(-c2ncco2)nc1N` (single isomer, unassigned) [Example 280, 3-amino-N-((3-methoxytetrahydrofuran-2-yl)methyl)-6-(3-methylimidazo[1,2-a]pyridin-6-yl)-5-(oxazol-2-yl)pyrazine-2-carboxamide], the IC50 stood at 0.6 nM. As to `Cc1cnc2ccc(-c3nc(C(=O)NCC4CCOC4)c(N)nc3-c3ccccn3)cn12` (single isomer, unassigned) [Example 304, 3-amino-6-[3-methylimidazo[1,2-a]pyridin-6-yl]-N-[[oxolan-3-yl]methyl]-5-(pyridin-2-yl)pyrazine-2-carboxamide], the IC50 came out at 8.2 nM. For the compound `Cc1cnc2ccc(-c3nc(C(=O)NCC4CCOC4)c(N)nc3-c3ccccn3)cn12` (single isomer, unassigned) [Example 305, 3-amino-6-[3-methylimidazo[1,2-a]pyridin-6-yl]-N-[[oxolan-3-yl]methyl]-5-(pyridin-2-yl)pyrazine-2-carboxamide], the IC50 is 12 nM. On to `COC1CCCC(NC(=O)c2nc(-c3ccc4ncc(C)n4c3)c(-c3ncco3)nc2N)C1` (single isomer, unassigned; isomer4) [Example 295, 3-amino-N-(3-methoxycyclohexyl)-6-(3-methylimidazo[1,2-a]pyridin-6-yl)-5-(oxazol-2-yl) pyrazine-2-carboxamide (isomer4)], for which the IC50 stood at 13 nM. To `Cc1cnc2ccc(-c3nc(C(=O)NCC4CCCOC4)c(N)nc3-c3ncco3)cn12` (single isomer, unassigned; isomer 1) [Example 167, 3-amino-6-(3-methylimidazo[1,2-a]pyridin-6-yl)-5-(oxazol-2-yl)-N-((tetrahydro-2H-pyran-3-yl)methyl)pyrazine-2-carboxamide (isomer 1)] belongs 1.2 nM; to `Cc1cnc2ccc(-c3nc(C(=O)NCC4OCC4(C)C)c(N)nc3-c3ncco3)cn12` (single isomer, unassigned; isomer 1) [Example 288, 3-amino-N-((3,3-dimethyloxetan-2-yl)methyl)-6-(3-methylimidazo[1,2-a]pyridin-6-yl)-5-(oxazol-2-yl)pyrazine-2-carboxamide (isomer 1)], 0.6 nM. Turning to `COC1CCCC(NC(=O)c2nc(-c3ccc4ncc(C)n4c3)c(-c3ncco3)nc2N)C1` (single isomer, unassigned; isomer 1) [Example 292, 3-amino-N-(3-methoxycyclohexyl)-6-(3-methylimidazo[1,2-a]pyridin-6-yl)-5-(oxazol-2-yl)pyrazine-2-carboxamide (isomer 1)], the half-inhibitory concentration (IC50) worked out at 0.4 nM. With `Cc1cnc2ccc(-c3nc(C(=O)NCC4CCCOC4)c(N)nc3-c3ncco3)cn12` (single isomer, unassigned; isomer 2) [Example 168, 3-amino-6-(3-methylimidazo[1,2-a]pyridin-6-yl)-5-(oxazol-2-yl)-N-((tetrahydro-2H-pyran-3-yl)methyl) pyrazine-2-carboxamide (isomer 2)], the IC50 is 1.1 nM.

As to `Cc1cnc2ccc(-c3nc(C(=O)NCC4OCC4(C)C)c(N)nc3-c3ncco3)cn12` (single isomer, unassigned; isomer 2) [Example 289, 3-amino-N-((3,3-dimethyloxetan-2-yl)methyl)-6-(3-methylimidazo[1,2-a]pyridin-6-yl)-5-(oxazol-2-yl)pyrazine-2-carboxamide (isomer 2)], the half-maximal inhibitory concentration (IC50) amounted to 1.9 nM.

With `COC1CCCC(NC(=O)c2nc(-c3ccc4ncc(C)n4c3)c(-c3ncco3)nc2N)C1` (single isomer, unassigned; isomer 2) [Example 293, 3-amino-N-(3-methoxycyclohexyl)-6-(3-methylimidazo[1,2-a]pyridin-6-yl)-5-(oxazol-2-yl)pyrazine-2-carboxamide (isomer 2)], the IC50 stood at 0.4 nM. Turning to `COC1CCCC(NC(=O)c2nc(-c3ccc4ncc(C)n4c3)c(-c3ncco3)nc2N)C1` (single isomer, unassigned; isomer 3) [Example 294, 3-amino-N-(3-methoxycyclohexyl)-6-(3-methylimidazo[1,2-a]pyridin-6-yl)-5-(oxazol-2-yl)pyrazine-2-carboxamide (isomer 3)], the IC50 was found to be 0.2 nM. Take `Cc1cnc2ccc(-c3nc(C(=O)NCc4cccc(N5[C@@H]6CC[C@H]5CN(C)C6)n4)c(N)nc3-c3ncco3)cn12` [Cmpd. 172, 3-amino-N-[(6-[3-methyl-3,8-diazabicyclo[3.2.1]octan-8-yl]pyridin-2-yl)methyl]-6-[3-methylimidazo[1,2-a]pyridin-6-yl]-5-(1,3-oxazol-2-yl)pyrazine-2-carboxamide]: the IC50 is 5.1 nM. As for `Cc1cnc2ccc(-c3nc(C(=O)NCc4cccc(N5CC6(CCN(C)C6)C5)n4)c(N)nc3-c3ncco3)cn12` [Cmpd. 175, 3-amino-N-((6-(6-methyl-2,6-diazaspiro[3.4]octan-2-yl)pyridin-2-yl)methyl)-6-(3-methylimidazo[1,2-a]pyridin-6-yl)-5-(oxazol-2-yl)pyrazine-2-carboxamide], the IC50 is 0.9 nM. For the compound `Cc1cnc2ccc(-c3nc(C(=O)NC[C@H]4CCCN4C)c(N)nc3-c3cccc(F)c3)cn12` [Cmpd. 231, (R)-3-amino-5-(3-fluorophenyl)-6-(3-methylimidazo[1,2-a]pyridin-6-yl)-N-((1-methylpyrrolidin-2-yl)methyl)pyrazine-2-carboxamide], the IC50 is 6.2 nM. Consider `Cc1cnc2ccc(-c3nc(CNC(=O)[C@H]4CCCN4C)c(N)nc3-c3ccc(F)c(F)c3)cn12` [Cmpd. 257, (2R)—N-[[3-amino-5-(3,4-difluorophenyl)-6-[3-methylimidazo[1,2-a]pyridin-6-yl]pyrazin-2-yl]methyl]-1-methylpyrrolidine-2-carboxamide], for which the IC50 stood at 1.5 nM. Turning to `Cc1cnc2ccc(-c3nc(C(=O)NC[C@H]4CCCN4C)c(N)nc3-c3ccccc3)cn12` [Cmpd. 259, 3-amino-6-[3-methylimidazo[1,2-a]pyridin-6-yl]-N-[[(2R)-1-methylpyrrolidin-2-yl]methyl]-5-phenylpyrazine-2-carboxamide], the 50% inhibitory concentration (IC50) came to 3.7 nM. For `Cc1cnc2ccc(-c3nc(C(=O)NC[C@H]4CCCN4C)c(N)nc3-c3ccc(F)c(F)c3)cn12` [Cmpd. 272, 3-amino-5-(3,4-difluorophenyl)-6-[3-methylimidazo[1,2-a]pyridin-6-yl]-N-[[(2R)-1-methylpyrrolidin-2-yl]methyl]pyrazine-2-carboxamide], the IC50 turned out to be 37 nM. Turning to `Cc1cnc2ccc(-c3nc(C(=O)NCc4cccc(N5[C@@H]6C[C@H]5CN(C)C6)n4)c(N)nc3-c3ncco3)cn12` [Example 174, 3-amino-N-((6-(3-methyl-3,6-diazabicyclo[3.1.1]heptan-6-yl)pyridin-2-yl)methyl)-6-(3-methylimidazo[1,2-a]pyridin-6-yl)-5-(oxazol-2-yl)pyrazine-2-carboxamide], the IC50 worked out at 6.9 nM. Regarding `Cc1cnc2ccc(-c3nc(C(=O)NCC(C)(C)C(=O)N(C)C)c(N)nc3-c3ncco3)cn12` [Example 281, 3-[(3-amino-6-[3-methylimidazo[1,2-a]pyridin-6-yl]-5-(1,3-oxazol-2-yl)pyrazin-2-yl)formamido]-N,N,2,2-tetramethylpropanamide], the IC50 worked out at 0.3 nM. Regarding `Cc1cnc2ccc(-c3nc(C(=O)NCc4cccc(N5C[C@H]6C[C@@H]5CN6C)n4)c(N)nc3-c3ncco3)cn12` [Example 282, 3-amino-N-((6-((1R,4R)-5-methyl-2,5-diazabicyclo[2.2.1]heptan-2-yl)pyridin-2-yl)methyl)-6-(3-methylimidazo[1,2-a]pyridin-6-yl)-5-(oxazol-2-yl) pyrazine-2-carboxamide], the 50% inhibitory concentration (IC50) turned out to be 4.5 nM. Take `Cc1cnc2ccc(-c3nc(C(=O)NCc4cccc(N5C[C@@H]6C[C@H]5CN6C)n4)c(N)nc3-c3ncco3)cn12` [Example 283, 3-amino-N-((6-((lS,4S)-5-methyl-2,5-diazabicyclo[2.2.1]heptan-2-yl)pyridin-2-yl)methyl)-6-(3-methylimidazo[1,2-a]pyridin-6-yl)-5-(oxazol-2-yl)pyrazine-2-carboxamide]: the IC50 came out at 3.4 nM. As for `Cc1cnc2ccc(-c3nc(C(=O)NCc4cccc(N5CC6(CN(C)C6)C5)n4)c(N)nc3-c3ncco3)cn12` [Example 284, 3-amino-N-[(6-[6-methyl-2,6-diazaspiro[3.3]heptan-2-yl]pyridin-2-yl)methyl]-6-[3-methylimidazo[1,2-a]pyridin-6-yl]-5-(1,3-oxazol-2-yl)pyrazine-2-carboxamide], the IC50 amounted to 0.7 nM. For `Cc1cnc2ccc(-c3nc(C(=O)NCc4cccc(N5CCN(C)[C@H](C)C5)n4)c(N)nc3-c3ncco3)cn12` [Example 285, 3-amino-N-([6-[(3R)-3,4-dimethylpiperazin-1-yl]pyridin-2-yl]methyl)-6-[3-methylimidazo[1,2-a]pyridin-6-yl]-5-(1,3-oxazol-2-yl)pyrazine-2-carboxamide], the IC50 was 4.5 nM. Turning to `Cc1cnc2ccc(-c3nc(C(=O)NCc4cccc(N5CCN(C)[C@@H](C)C5)n4)c(N)nc3-c3ncco3)cn12` [Example 286, (S)-3-amino-N-((6-(3,4-dimethylpiperazin-1-yl)pyridin-2-yl)methyl)-6-(3-methylimidazo[1,2-a]pyridin-6-yl)-5-(oxazol-2-yl)pyrazine-2-carboxamide], the concentration for half-maximal inhibition (IC50) was 3.2 nM.
